This is an account of results in patent US9073940B2, “Tricyclic pyrazol amine derivatives” (MERCK SERONO SA, priority 2009, dated 2015).

Each structure is given as a SMILES string. Where a name gives a salt, the structure may show the parent alone.

One assay concerns 4 PI3K isoforms (Human recombinant GST-PI3K). As to the kind of experiment: PI3K scintillation proximity assay, best IC50 obtained with the four isoforms (alpha, beta, delta, gamma). The assay is classed as biochemical. Particulars: best IC50 obtained with the four isoforms of PI3K; read-out: Best potency measured on the 4 PI3K isoforms. (In a scintillation proximity assay essentially only radioactivity close to the scintillant gives light.)
Consider `COC1CCN(CCN2CCC[C@H](n3nc(C(=O)N4CCOCC4)c4c3-c3ccccc3S(=O)(=O)C4)C2)CC1` (stereo in doubt) [Example 460, 1-{1-[2-(4-methoxypiperidin-1-yl)ethyl]piperidin-3-yl}-3-(morpholin-4-ylcarbonyl)-1,4-dihydrothiochromeno[4,3-c]pyrazole 5,5-dioxide], for which the IC50 amounted to 0.021 µM.

In the case of `O=C(c1nn(C2CCN(CCC3CCOCC3)C2)c2c1CS(=O)(=O)c1ccccc1-2)N1CCOCC1` (stereo not shown) [Example 270, 3-(Morpholin-4-ylcarbonyl)-1-{1-[2-(tetrahydro-2H-pyran-4-yl)ethyl]pyrrolidin-3-yl}-1,4-dihydrothiochromeno[4,3-c]pyrazole 5,5-dioxide], the IC50 is 0.28 µM.

As for `O=C(c1nn(C2CCN(CCCl)C2)c2c1CS(=O)(=O)c1ccccc1-2)N1CCOCC1` (stereo not shown) [Example 274], the IC50 was determined as 0.305 µM.

Regarding `O=C(Nc1cccnc1)c1cccc(-n2nc(C(=O)N3CCOCC3)c3c2-c2ccccc2S(=O)(=O)C3)c1` [Example 149, 3-[3-(Morpholin-4-ylcarbonyl)-5,5-dioxidothiochromeno[4,3-c]pyrazol-1(4H)-yl]-N-pyridin-3-ylbenzamide], the IC50 came out at 0.926 µM.

As to `CC(C)(C)OC(=O)N1CCCC(n2nc(C(=O)N3CCOCC3)c3c2-c2ccccc2S(=O)(=O)C3)C1` (stereo not shown) [Example 120], the IC50 was 1.54 µM.

As for `O=C(c1ccc2c(c1)-c1c(c(C(=O)N3CCOCC3)nn1-c1ccccc1)CS2(=O)=O)N1CCOCC1` [Example 116, 3,8-Bis(morpholin-4-ylcarbonyl)-1-phenyl-1,4-dihydrothiochromeno[4,3-c]pyrazole 5,5-dioxide], the IC50 was 3.03 µM.

With `O=C(c1nn(C2CCCN(CCC3CCOCC3)C2)c2c1CS(=O)(=O)c1ncccc1-2)N1CCOCC1` (stereo not shown) [Example 408], the IC50 was 0.061 µM.

`CCCCNc1ccc2c(c1)S(=O)(=O)Cc1c(C(=O)N3CCOCC3)nn(-c3ccccc3)c1-2` [Example 326]: the IC50 was found to be 9.79 µM.

Turning to `O=C(c1nn([C@@H]2CCCN(CCC3CCOCC3)C2)c2c1CS(=O)(=O)c1c(F)cccc1-2)N1CCOCC1` (single isomer, unassigned) [Example 343, 6-fluoro-3-(morpholin-4-ylcarbonyl)-1-{1-[2-(tetrahydro-2H-pyran-4-yl)ethyl]piperidin-3-yl}-1,4-dihydrothiochromeno[4,3-c]pyrazole 5,5-dioxide hydrochloride salt], the IC50 was 1.92 µM.

Consider `CNc1cccc2c1S(=O)(=O)Cc1c(C(=O)N3CCOCC3)nn(-c3ccccc3)c1-2` [Example 212, N-Methyl-3-(morpholin-4-ylcarbonyl)-1-phenyl-1,4-dihydrothiochromeno[4,3-c]pyrazol-6-amine 5,5-dioxide], for which the IC50 is 3.51 µM.

`O=C(c1nn([C@H]2CCCN(C(=O)C3CCOCC3)C2)c2c1CS(=O)(=O)c1ccccc1-2)N1CCOCC1` [Example 397]: the IC50 was 1.5 µM.

As for `O=C(c1nn(C2CCCC(C(=O)N3CCCCC3)C2)c2c1CS(=O)(=O)c1ccccc1-2)N1CCOCC1` (stereo not shown) [Example 193, 3-(Morpholin-4-ylcarbonyl)-1-[3-(piperidin-1-ylcarbonyl)cyclohexyl]-1,4-dihydrothiochromeno[4,3-c]pyrazole 5,5-dioxide], the IC50 turned out to be 0.362 µM.

On to `O=C(c1nn(C2CCN(CCN3CCC(F)CC3)C2)c2c1CS(=O)(=O)c1ccccc1-2)N1CCOCC1` (stereo not shown) [Example 277, 1-{1-[2-(4-Fluoropiperidin-1-yl)ethyl]pyrrolidin-3-yl}-3-(morpholin-4-ylcarbonyl)-1,4-dihydrothiochromeno[4,3-c]pyrazole 5,5-dioxide], for which the IC50 stood at 0.149 µM.

For the compound `O=C(c1nn(-c2ccccc2)c2c1CS(=O)(=O)c1nccn1-2)N1CCOCC1` [Example 485], the IC50 was 0.477 µM.

Take `O=C(c1nn(C2CCN(CCN3CC(F)(F)C3)C2)c2c1CS(=O)(=O)c1ccccc1-2)N1CCOCC1` (stereo not shown) [Example 311, 1-{1-[2-(3,3-Difluoroazetidin-1-yl)ethyl]pyrrolidin-3-yl}-3-(morpholin-4-ylcarbonyl)-1,4-dihydrothiochromeno[4,3-c]pyrazole 5,5-dioxide]: the IC50 was determined as 0.156 µM.

Regarding `CC(C)(c1ccc(-n2nc(C(=O)N3CCOCC3)c3c2-c2ccccc2S(=O)(=O)C3)cc1)N1CCOCC1` [Example 457, 1-[4-(1-Methyl-1-morpholin-4-ylethyl)phenyl]-3-(morpholin-4-ylcarbonyl)-1,4-dihydrothiochromeno[4,3-c]pyrazole 5,5-dioxide], the IC50 stood at 0.584 µM.

In the case of `O=C(c1nn(-c2cccc(CO)c2)c2c1CS(=O)(=O)c1ccccc1-2)N1CCOCC1` [Example 141, {3-[3-(Morpholin-4-ylcarbonyl)-5,5-dioxidothiochromeno[4,3-c]pyrazol-1(4H)-yl]phenyl}methanol], the IC50 amounted to 2.25 µM.

In the case of `Nc1ncc(-c2cccc(-n3nc(C(=O)N4CCOCC4)c4c3-c3ccccc3S(=O)(=O)C4)c2)cn1` [Example 186, 5-{3-[3-(Morpholin-4-ylcarbonyl)-5,5-dioxidothiochromeno[4,3-c]pyrazol-1 (4H)-yl]phenyl}pyrimidin-2-amine], the IC50 came to 0.454 µM.

For `CC(=O)NCCN1CCC[C@H](n2nc(C(=O)N3CCOCC3)c3c2-c2ccccc2S(=O)(=O)C3)C1` (stereo in doubt) [Example 444, N-(2-{3-[3-(morpholin-4-ylcarbonyl)-5,5-dioxidothiochromeno[4,3-c]pyrazol-1(4H)-yl]piperidin-1-yl}ethyl)acetamide], the IC50 was 0.105 µM.

Regarding `NC(=O)c1cccc(-n2nc(C(=O)N3CCOCC3)c3c2-c2ccccc2S(=O)(=O)C3)c1` [Example 62, 3-[3-(Morpholin-4-ylcarbonyl)-5,5-dioxidothiochromeno[4,3-c]pyrazol-1(4H)-yl]benzamide], the IC50 amounted to 0.957 µM.

Take `O=C(c1nn(C2CCCCC2)c2c1CS(=O)(=O)c1sccc1-2)N1CCOCC1` [Example 201, 1-Cyclohexyl-3-(morpholin-4-ylcarbonyl)-1,4-dihydrothieno[3′,2′:5,6]thiopyrano[4,3-c]pyrazole 5,5-dioxide]: the IC50 turned out to be 0.302 µM.

For `O=C(c1nn([C@H]2CCN(CCN3CCC(F)CC3)C2)c2c1CS(=O)(=O)c1ccccc1-2)N1CCOCC1` (single isomer, unassigned) [Example 410, 1-{1-[2-(4-fluoropiperidin-1-yl)ethyl]pyrrolidin-3-yl}-3-(morpholin-4-ylcarbonyl)-1,4-dihydrothiochromeno[4,3-c]pyrazole 5,5-dioxide], the IC50 stood at 3.69 µM.

Take `O=C(c1nn(C2CCCNC2)c2c1CS(=O)(=O)c1cc(OC(F)(F)F)ccc1-2)N1CCOCC1` (stereo not shown) [Example 481, 7-(Trifluoromethoxy)-3-(morpholin-4-ylcarbonyl)-1-piperidin-3-yl-1,4-dihydrothiochromeno[4,3-c]pyrazole 5,5-dioxide]: the IC50 stood at 10.5 µM.

For the compound `Cc1ccc(F)cc1-n1nc(C(=O)N2CCOCC2)c2c1-c1ccccc1S(=O)(=O)C2` [Example 8, 1-(5-fluoro-2-methylphenyl)-3-(morpholin-4-ylcarbonyl)-1,4-dihydrothiochromeno[4,3-c]pyrazole 5,5-dioxide], the IC50 was 4.2 µM.

In the case of `O=C(c1nn(-c2ccc(CN3CC(F)(F)C3)cc2)c2c1CS(=O)(=O)c1ccccc1-2)N1CCOCC1` [Example 271, 1-{4-[(3,3-Difluoroazetidin-1-yl)methyl]phenyl}-3-(morpholin-4-ylcarbonyl)-1,4-dihydrothiochromeno[4,3-c]pyrazole 5,5-dioxide], the IC50 came out at 0.395 µM.

Consider `COc1cccc2c1S(=O)(=O)Cc1c(C(=O)N3CCOCC3)nn([C@H]3CCCN(CCN4CC(F)(F)C4)C3)c1-2` (single isomer, unassigned) [Example 442, 1-{1-[2-(3,3-difluoroazetidin-1-yl)ethyl]piperidin-3-yl}-6-methoxy-3-(morpholin-4-ylcarbonyl)-1,4-dihydrothiochromeno[4,3-c]pyrazole 5,5-dioxide], for which the IC50 came to 0.04 µM.

`COCc1cccc(-n2nc(C(=O)N3CCOCC3)c3c2-c2ccccc2S(=O)(=O)C3)c1` [Example 248, 1-[3-(Methoxylmethyl)phenyl]-3-(morpholin-4-ylcarbonyl)-1,4-dihydrothiochromeno[4,3-c]pyrazole 5,5-dioxide]: the IC50 came out at 0.997 µM.

In the case of `COCCCC1c2c(C(=O)N3CCOCC3)nn(-c3ccccc3)c2-c2ccccc2S1(=O)=O` (stereo not shown) [Example 112, 4-(3-Methoxypropyl)-3-(morpholin-4-ylcarbonyl)-1-phenyl-1,4-dihydrothiochromeno[4,3-c]pyrazole 5,5-dioxide], the IC50 came out at 5.07 µM.

`O=C(NC1CCCCC1)N1CCC(n2nc(C(=O)N3CCOCC3)c3c2-c2ccccc2S(=O)(=O)C3)C1` (stereo not shown) [Example 276]: the IC50 was 0.875 µM.

As for `COc1ccc2c(c1)S(=O)(=O)Cc1c(C(=O)N3CCOCC3)nn(C)c1-2` [Example 4, 7-methoxy-1-methyl-3-(morpholin-4-ylcarbonyl)-1,4-dihydrothiochromeno[4,3-c]pyrazole 5,5-dioxide], the IC50 is 0.422 µM.

In the case of `Cc1nnc(-c2cccc(-n3nc(C(=O)N4CCOCC4)c4c3-c3ccccc3S(=O)(=O)C4)c2)o1` [Example 182, 1-[3-(5-Methyl-1,3,4-oxadiazol-2-yl)phenyl]-3-(morpholin-4-ylcarbonyl)-1,4-dihydrothiochromeno[4,3-c]pyrazole 5,5-dioxide], the IC50 worked out at 1.2 µM.

On to `CN1CCN(Cc2ccc(-n3nc(C(=O)N4CCOCC4)c4c3-c3ccccc3S(=O)(=O)C4)cn2)CC1` [Example 252, 1-{6-[(4-Methylpiperazin-1-yl)methyl]pyridin-3-yl}-3-(morpholin-4-ylcarbonyl)-1,4-dihydrothiochromeno[4,3-c]pyrazole 5,5-dioxide], for which the IC50 came to 0.335 µM.

Still in this assay, the particulars now being: inhibition at 20 μM.
With `CC1(C)c2c(C(=O)N3CCOCC3)nn(-c3ccccc3)c2-c2ccccc2S1(=O)=O` [Example 60, 4,4-dimethyl-3-(morpholin-4-ylcarbonyl)-1-phenyl-1,4-dihydrothiochromeno[4,3-c]pyrazole 5,5-dioxide], the “Best potency measured on the 4 PI3K isoforms, % inh @20 μM” value turned out to be 52% in @20 μM.

Regarding `O=C(c1nn(-c2ccccc2)c2c1CS(=O)(=O)c1ccccc1-2)N1CCOc2ccccc21` [Example 335], the “Best potency measured on the 4 PI3K isoforms, % inh @20 μM” value was determined as 13% inh @20 μM.
